Publication PMC9369442, “Synthetic Peucedanocoumarin IV Prevents α-Synuclein Neurotoxicity in an Animal Model of Parkinson’s Disease” (International Journal of Molecular Sciences, 2022)

Tested on: β23 (HA-tagged) in SH-SY5Y cells
Assay: β23 clearance by Western blot and immunofluorescence of HA-tagged β23
Format: cell-based, Human
Conditions: 1 μM; for HA-β23 immunofluorescence signal in mCherry-positive transfected cells: 37 h
Protocol: Figure 1 Peucedanocoumarin IV (PCiv) inhibits β23 aggregations and cytotoxicity in SH-SY5Y cells. (A) Scheme showing the detailed experimental steps in the organic synthesis of racemic PCiv and racemic PCiii (rac-PCiii, and rac-PCiv). Both PCiii and PCiv used in this study are racemic forms. (B) Trypan blue exclusion cell viability assessment in SH-SY5Y cells with Tet-Off-induced β23 expressions. β23 was expressed for 24 h using the Tet-off system. Further expression of β23 was halted by doxycycline (Dox) treatment with simultaneous treatment of the PCiii, PCiv, or their synthetic intermediate, trans-khellatone (t-khellatone, 1 μM 24 h). Cell viability was assessed 24 h after doxycycline treatment (n = 5 per group). (C) Synthetic PCiv’s protective effect on Tet-Off-expressed β23 toxicity in SH-SY5Y cells compared with peucedanocoumarin III (PCiii) determined by trypan blue exclusion assay. (D) The degradation of β23 monitored by Western blot at 37 h after doxycycline (200 ng/mL) treatment. The representative Western blot image of HA (β23) in SH-SY5Y cells treated with synthetic PCiii, synthetic PCiv (1 μM, 37 h), or DMSO as a vehicle. (E) Quantification of HA (β23) expression in SH-SY5Y cells from the indicated experimental groups in panel D (n = 3 experiments per group). (F) Representative immunofluorescence of steady state HA (β23) expression in SH-SY5Y cells expressing Tet-Off regulatable reporter mCherry and HA-tagged β23. […] (G) Quantification of HA (β23) immunofluorescence signal in mCherry positive SH-SY5Y cells in each experimental group (n = 32 cells from three separate experiments per group). The data are expressed as means ± SEMs. * p < 0.05, ** p < 0.01, *** p < 0.001, and **** p < 0.0001, ANOVA test followed by Tukey’s post hoc analysis. […]
Lysis buffer was added to the SH-SY5Y cells washed with ice-cold PBS (1% Nonidet P40 in PBS, pH 7.4) that was supplemented with protease/phosphatase inhibitors. […] The supernatants were quantified through BCA protein assessment. […] Next, band quantification was performed using ImageJ software. […]

Compound | HA-β23 immunofluorescence signal in mCherry-positive transfected cells | steady-state β23 expression levels (Western blot) (37 h after doxycycline)
C/C=C(\C)C(=O)O[C@H]1[C@H](OC(C)=O)c2c(ccc3ccc(=O)oc23)OC1(C)C (relative stereo) [PCiv, trans-4′-acetyl-3′-tigloylkhellactone] | markedly reduced | markedly reduced
C/C=C(\C)C(=O)O[C@@H]1c2c(ccc3ccc(=O)oc23)OC(C)(C)[C@H]1OC(C)=O (relative stereo) [PCiii, peucedanocoumarin III] | markedly reduced | 
